From patent US12473339B2, “Acylated glucagon analogues” (Zealand Pharma A/S, priority 2013, dated 2025) come the findings set out here.

Molecules are shown by their SMILES. *1 amine or outer side, *2 acyl side, *3 side chain or, on linkers, in order; H or OH if unused. Where a SMILES comes first, the peptide text is derived from it. Side-chain parts run from the residue outwards. [ ]: non-standard residue; d: D form. The star is where a group is joined. C18 diacid = O=C(O)CCCCCCCCCCCCCCCCC(=O)*; γGlu = O=C(O)[C@H](CCC(=O)[*:2])N[*:1]; Ac4c = NC1(C(=O)O)CCC1; AEEA = NCCOCCOCC(=O)O

For series [1], the target named is T1, human glucagon-like peptide 1 receptor (GLP-1R) (Homo sapiens, UniProt P43220).
T1 construct: expressed in transfected cells
T1 sequence (P43220 24-463): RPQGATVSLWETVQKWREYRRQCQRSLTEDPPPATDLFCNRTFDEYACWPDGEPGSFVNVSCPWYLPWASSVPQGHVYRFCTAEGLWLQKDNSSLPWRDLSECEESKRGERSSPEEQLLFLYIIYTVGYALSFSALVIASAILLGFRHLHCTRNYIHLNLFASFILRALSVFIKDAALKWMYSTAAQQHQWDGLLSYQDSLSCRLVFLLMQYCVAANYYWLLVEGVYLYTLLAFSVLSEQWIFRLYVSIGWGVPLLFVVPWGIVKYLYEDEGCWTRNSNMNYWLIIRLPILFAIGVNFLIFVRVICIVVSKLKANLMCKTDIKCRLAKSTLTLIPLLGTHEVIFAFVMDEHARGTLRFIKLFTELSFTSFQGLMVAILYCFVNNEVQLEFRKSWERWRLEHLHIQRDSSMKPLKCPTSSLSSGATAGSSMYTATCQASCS
Put plainly: GLP-1 receptor efficacy assay (cAMP AlphaScreen, CHO cells). The class given is cell-based. Particulars: for Ratio GLP-1/Glucagon: EC50 [GLP-1R] / EC50 [Glucagon-R], human receptors in CHO-K1; for EC50: cAMP formation, CHO cells expressing human GLP-1-R, 15 min, read-out: EC50 hGLP-1R CHO-K1. The source says:
(§1) The cDNA encoding either the human glucagon receptor (Glucagon-R) (primary accession number P47871) or the human glucagon-like peptide 1 receptor (GLP-1R) (primary accession number P43220) were synthesized and cloned into a mammalian expression vector containing a Zeocin resistance marker.
(§2) The mammalian expression vectors encoding the Glucagon-R or the GLP-1-R were transfected into Chinese hamster ovary (CHO) cells by the Attractene method. Stably expressing clones were obtained by Zeocin selection (250 μg/mL) upon limited dilution of cells resistant to the selection pressure. Glucagon-R and GLP-1-R cell clones expressing were picked, propagated and tested in the Glucagon-R and GLP-1-R efficacy assays as described below. One Glucagon-R expressing clone and one GLP-1-R expressing clone were chosen for compound profiling.
(§3) CHO cells expressing the human Glucagon-R, or human GLP-1-R were seeded 24 hours prior to the assay at 30,000 cells per well in 96-well microtiter plates in culture in 100 μl growth medium. On the day of analysis, growth medium was removed and the cells were washed once with 200 μl of assay buffer (Krebs-Ringer-buffer—KRBH). The buffer was removed and the cells were incubated for 15 min at room temperature in 10 μl KRBH (KRBH+10 mM HEPES, 5 mM NaHCO3, 0.1% (V/V) BSA) with 0.1 mM IBMX in deionized water containing increasing concentrations of test peptides. The reaction was stopped by the addition of lysis buffer (0.1% w/v BSA, 5 mM HEPES, 0.3% v/v Tween-20). After cell lysis for 10 min at room temperature, lysates were transferred to 384-well plates and 10 μl of acceptor/donorbead mixture as contained in the AlphaScreen™ cAMP Functional Assay Kit was added. After one hour of incubation at room temperature in the dark, the cAMP content was determined applying the AlphaScreen™ cAMP Functional Assay Kit from Perkin-Elmer according to manufacturer instructions. EC50 and relative efficacies compared to reference compounds (glucagon and GLP-1) were calculated applying computer aided curve fitting. The GLP-1/glucagon ratio is calculated as defined earlier.
(In Alpha technology, singlet oxygen from a donor bead excites a nearby acceptor bead.)

The nature of series [2]: Pharmacokinetic parameters after intravenous administration to rats. Conditions: male, Han/Wistar, rat, in vivo, 20 nmol/kg. On the procedure:
Pharmacokinetic parameters of the test compounds were determined after intravenous administration to Han/Wistar rats. The acylated GLP-1 analogue semaglutide was also tested for comparison purposes. Male Wistar rats were obtained from Charles River (Germany) weighing approximately 180 to 210 g at time of arrival at the test facility. Rats were caged in European standard rat cages type IV with light cycle of 12-hour dark and 12-hour light. During the study rats were housed in standard rat cages type III. Both diet Altromin 1324 (Altromin, Germany) and water was administered ad libitum during the whole experimental period. The animals were housed in the test facility for at least 4 days in order to assure proper acclimatization. The compounds were first dissolved in 0.1% aqueous ammonia to a nominal concentration of 2 mg/ml, and then diluted to the desired dosing strength (10 μM) in sterile PBS containing 25 mM phosphate buffer, pH 7.4. Intravenous injections corresponding to 20 nmol/kg were given via a lateral tail vein. Blood samples (200 μl) were collected from the periorbital plexus at time points 0.08, 0.25, 0.5, 1, 2, 4, 8, 24, 32 and 48 h post dosing into K3EDTA tubes and centrifuged for 5 minutes at 4° C. within 20 minutes of sampling. […] Individual plasma concentration-time profiles were analysed by a non-compartmental approach using ToxKin™ version 3.2 (Unilog IT Services), and the resulting pharmacokinetic parameters were determined.

Series [3] has as its target T2, human glucagon receptor (Glucagon-R) (Homo sapiens, UniProt P47871).
T2 construct: expressed in transfected cells
Nature of the series: Glucagon receptor efficacy assay (cAMP AlphaScreen, CHO cells). It is filed as cell-based. Particulars: cAMP formation, CHO cells expressing human Glucagon-R, 15 min; read-out: EC50 hGCGR CHO-K1.
Description: as §1, §2, §3

T2 sequence (P47871 26-477): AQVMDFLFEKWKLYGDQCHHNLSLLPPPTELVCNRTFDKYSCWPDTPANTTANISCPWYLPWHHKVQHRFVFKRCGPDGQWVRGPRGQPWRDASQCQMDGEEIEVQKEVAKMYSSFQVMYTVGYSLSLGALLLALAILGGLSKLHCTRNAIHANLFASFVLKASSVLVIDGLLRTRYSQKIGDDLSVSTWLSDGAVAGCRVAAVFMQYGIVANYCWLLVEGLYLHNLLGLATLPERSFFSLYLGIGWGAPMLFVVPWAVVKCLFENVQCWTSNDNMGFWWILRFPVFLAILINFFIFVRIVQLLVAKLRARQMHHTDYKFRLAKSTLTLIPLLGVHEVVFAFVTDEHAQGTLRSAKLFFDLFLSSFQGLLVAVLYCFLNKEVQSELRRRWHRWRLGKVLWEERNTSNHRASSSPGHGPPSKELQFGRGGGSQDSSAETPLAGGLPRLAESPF

`CC[C@H](C)[C@H](NC(=O)[C@H](Cc1ccccc1)NC(=O)[C@H](CC(=O)O)NC(=O)[C@H](CCCCN)NC(=O)[C@H](C)NC(=O)[C@H](C)NC(=O)[C@H](CCCNC(=N)N)NC(=O)[C@H](CCC(=O)O)NC(=O)[C@H](CC(=O)O)NC(=O)[C@H](CC(C)C)NC(=O)[C@H](Cc1ccc(O)cc1)NC(=O)[C@H](CCCCN)NC(=O)[C@H](CO)NC(=O)[C@H](Cc1ccc(O)cc1)NC(=O)[C@H](CC(=O)O)NC(=O)[C@H](CO)NC(=O)[C@@H](NC(=O)[C@H](Cc1ccccc1)NC(=O)[C@@H](NC(=O)CNC(=O)[C@H](CCC(N)=O)NC(=O)C(C)(C)NC(=O)[C@@H](N)Cc1c[nH]cn1)[C@@H](C)O)[C@@H](C)O)C(=O)N[C@@H](CCCCNC(=O)CNC(=O)CNC(=O)[C@H](CO)NC(=O)CNC(=O)[C@H](CO)NC(=O)CNC(=O)CC[C@H](NC(=O)CCCCCCCCCCCCCCCCC(=O)O)C(=O)O)C(=O)N[C@@H](Cc1c[nH]c2ccccc12)C(=O)N[C@@H](CC(C)C)C(=O)N[C@@H](CCC(=O)O)C(=O)N[C@@H](CO)C(=O)N[C@@H](C)C(N)=O` [Compound 3]: in series [1], the “Ratio GLP-1/Glucagon” value is 0.47 and the EC50 came to 0.7 nM. In series [2], the MRT turned out to be 28.7 h, the clearance was 3.36 mL/h/kg and the half-life is 23.4 h.

For the compound `CC[C@H](C)[C@H](NC(=O)[C@H](Cc1ccccc1)NC(=O)[C@H](CC(=O)O)NC(=O)[C@H](CCCCN)NC(=O)[C@H](C)NC(=O)[C@H](CCCNC(=N)N)NC(=O)[C@H](CCCCNC(=O)COCCOCCNC(=O)COCCOCCNC(=O)CC[C@H](NC(=O)CCCCCCCCCCCCCCCCC(=O)O)C(=O)O)NC(=O)[C@H](CCC(=O)O)NC(=O)[C@H](CC(=O)O)NC(=O)[C@H](CC(C)C)NC(=O)[C@H](Cc1ccc(O)cc1)NC(=O)[C@H](CCCCN)NC(=O)[C@H](CO)NC(=O)[C@H](Cc1ccc(O)cc1)NC(=O)[C@H](CC(=O)O)NC(=O)[C@H](CO)NC(=O)[C@@H](NC(=O)[C@H](Cc1ccccc1)NC(=O)[C@@H](NC(=O)CNC(=O)[C@H](CCC(N)=O)NC(=O)C1(NC(=O)[C@@H](N)Cc2c[nH]cn2)CCC1)[C@@H](C)O)[C@@H](C)O)C(=O)N[C@@H](CCC(=O)O)C(=O)N[C@@H](Cc1c[nH]c2ccccc12)C(=O)N[C@@H](CC(C)C)C(=O)N[C@@H](CCC(=O)O)C(=O)N[C@@H](CO)C(=O)N[C@@H](C)C(N)=O` [Compound 4, H-H-Ac4c-QGTFTSDYSKYLDE-K([17-carboxy-heptadecanoyl]-isoGlu-Peg3-Peg3)-RAKDFIEWLESA-NH2] (H-H[Ac4c]QGTFTSDYSKYLDEK([AEEA-AEEA-γGlu-C18 diacid])RAKDFIEWLESA-NH2), in series [1], the “Ratio GLP-1/Glucagon” value was found to be 1.56 and the EC50 was found to be 0.7 nM. In series [2], this compound showed an MRT of 17.6 h, a clearance of 6.6 mL/h/kg and a half-life of 13.7 h.

As for `CC[C@H](C)[C@H](NC(=O)[C@H](Cc1ccccc1)NC(=O)[C@H](CC(=O)O)NC(=O)[C@H](CCCCN)NC(=O)[C@H](C)NC(=O)[C@H](C)NC(=O)[C@H](CCCNC(=N)N)NC(=O)[C@H](CCCCNC(=O)CNC(=O)CNC(=O)[C@H](CO)NC(=O)CNC(=O)[C@H](CO)NC(=O)CNC(=O)CC[C@H](NC(=O)CCCCCCCCCCCCCCCCC(=O)O)C(=O)O)NC(=O)[C@H](CC(=O)O)NC(=O)[C@H](CC(C)C)NC(=O)[C@H](Cc1ccc(O)cc1)NC(=O)[C@H](CCCCN)NC(=O)[C@H](CO)NC(=O)[C@H](Cc1ccc(O)cc1)NC(=O)[C@H](CC(=O)O)NC(=O)[C@H](CO)NC(=O)[C@@H](NC(=O)[C@H](Cc1ccccc1)NC(=O)[C@@H](NC(=O)CNC(=O)[C@H](CCC(N)=O)NC(=O)C(C)(C)NC(=O)[C@@H](N)Cc1c[nH]cn1)[C@@H](C)O)[C@@H](C)O)C(=O)N[C@@H](CCC(=O)O)C(=O)N[C@@H](Cc1c[nH]c2ccccc12)C(=O)N[C@@H](CC(C)C)C(=O)N[C@@H](CCC(=O)O)C(=O)N[C@@H](CO)C(=O)N[C@@H](C)C(N)=O` [Compound 5, H-H-Aib-QGTFTSDYSKYLD-K([17-carboxy-heptadecanoyl]-isoGlu-GSGSGG)-RAAKDFIEWLESA-NH2], the EC50 in series [3] amounted to 0.18 nM. For the same compound, the “Ratio GLP-1/Glucagon” value in series [1] is listed as 4.61.

With `CC[C@H](C)[C@H](NC(=O)[C@H](Cc1ccccc1)NC(=O)[C@H](CC(=O)O)NC(=O)[C@H](CCCCN)NC(=O)[C@H](C)NC(=O)[C@H](CCCNC(=N)N)NC(=O)[C@H](CCCCNC(=O)CC[C@H](NC(=O)CCCCCCCCCCCCCCCCC(=O)O)C(=O)O)NC(=O)[C@H](CCC(=O)O)NC(=O)[C@H](CC(=O)O)NC(=O)[C@H](CC(C)C)NC(=O)[C@H](Cc1ccc(O)cc1)NC(=O)[C@H](CCCCN)NC(=O)[C@H](CO)NC(=O)[C@H](Cc1ccc(O)cc1)NC(=O)[C@H](CC(=O)O)NC(=O)[C@H](CO)NC(=O)[C@@H](NC(=O)[C@H](Cc1ccccc1)NC(=O)[C@@H](NC(=O)CNC(=O)[C@H](CCC(N)=O)NC(=O)C1(NC(=O)[C@@H](N)Cc2c[nH]cn2)CCC1)[C@@H](C)O)[C@@H](C)O)C(=O)N[C@@H](CCC(=O)O)C(=O)N[C@@H](Cc1c[nH]c2ccccc12)C(=O)N[C@@H](CC(C)C)C(=O)N[C@@H](CCC(=O)O)C(=O)N[C@@H](CO)C(=O)N[C@@H](C)C(N)=O` [Compound 12, H-H-Ac4c-QGTFTSDYSKYLDE-K([17-carboxy-heptadecanoyl]-isoGlu)-RAKDFIEWLESA-NH2] (H-H[Ac4c]QGTFTSDYSKYLDEK([γGlu-C18 diacid])RAKDFIEWLESA-NH2), the concentration for a half-maximal effect (EC50) in series [3] is 0.07 nM. In addition, in series [1], the “Ratio GLP-1/Glucagon” value is listed as 6.86.

Broadly, the EC50 is the concentration needed to bring the measured effect to its halfway point. By MRT is commonly meant the average time that molecules of a dose stay in the body. In general, clearance refers to the volume of plasma or blood freed of the substance per unit of time. As a reminder, the half-life is the time needed for the level to fall by half in the phase considered.
